{
  "source": "ChEMBL document CHEMBL4190177",
  "about": "(2016)",
  "key": {"U138-MG [1]": {"test_system": "U138-MG", "assay": "Cytotoxicity against human U138MG cells assessed as reduction in cell viability at 150 uM relative to control", "type": "functional"}, "C6 [2]": {"test_system": "C6", "assay": "Cytotoxicity against rat C6 cells assessed as reduction in cell viability at 150 uM relative to control", "type": "functional"}, "C6 [3]": {"test_system": "C6", "assay": "Cytotoxicity against rat C6 cells assessed as reduction in cell viability at 50 uM after 72 hrs by MTT assay relative to control", "type": "functional"}, "C6 [4]": {"test_system": "C6", "assay": "Cytotoxicity against rat C6 cells assessed as reduction in cell viability after 72 hrs by MTT assay", "type": "functional, cell-based"}, "C6 [5]": {"test_system": "C6", "assay": "Cytotoxicity against rat C6 cells assessed as reduction in cell viability at 25 to 50 uM after 72 hrs by MTT assay", "type": "functional, cell-based"}, "U138-MG [6]": {"test_system": "U138-MG", "assay": "Cytotoxicity against human U138MG cells assessed as reduction in cell viability at 10 uM relative to control", "type": "functional"}, "C6 [7]": {"test_system": "C6", "assay": "Cytotoxicity against rat C6 cells assessed as reduction in cell viability at 5 uM after 72 hrs by MTT assay relative to control", "type": "functional"}, "C6 [8]": {"test_system": "C6", "assay": "Cytotoxicity against rat C6 cells assessed as reduction in cell viability at 5 to 50 uM after 72 hrs by MTT assay", "type": "functional, cell-based"}, "C6 [9]": {"test_system": "C6", "assay": "Cytotoxicity against rat C6 cells assessed as reduction in cell viability at 10 uM after 72 hrs by MTT assay relative to control", "type": "functional"}},
  "note": "The source made the active and inactive calls. No cut-off for these calls is given here.",
  "data": [
    {"smiles": "O=Cc1cccc(O)c1", "note": "[3-HYDROXYBENZALDEHYDE]", "values": [
      {"measurement": "Activity", "setting": "U138-MG [1]", "value": 30, "unit": "%"},
      {"measurement": "Activity", "setting": "C6 [2]", "value": 30, "unit": "%"}
    ]},
    {"smiles": "CCOC(=O)C1=C(C)NC(=S)NC1c1cccc(O)c1", "note": "(stereo not given) [MONASTROL]", "values": [
      {"measurement": "Activity", "setting": "C6 [3]", "value": 50, "unit": "%"}
    ]},
    {"smiles": "CCCCCCCCCCCCCCCCOC(=O)C1=C(C)NC2=C(C(=O)CC(C)(C)C2)C1c1ccccc1", "note": "(stereo not given)", "values": [
      {"measurement": "Activity", "setting": "C6 [4]", "value": "Dose-dependent effect"}
    ]},
    {"smiles": "CCCCCCCCCCCCCCCCCCOC(=O)C1=C(C)NC2=C(C(=O)CC(C)(C)C2)C1c1cccc([N+](=O)[O-])c1", "note": "(stereo not given)", "values": [
      {"measurement": "Activity", "setting": "C6 [4]", "value": "Dose-dependent effect"},
      {"measurement": "Activity", "setting": "C6 [5]", "value": "inactive"}
    ]},
    {"smiles": "CCCCCCCCCCCCCCCCOC(=O)C1=C(C)NC(=O)NC1c1cccc(O)c1", "note": "(stereo not given)", "values": [
      {"measurement": "Activity", "setting": "U138-MG [6]", "value": 50, "unit": "%"}
    ]},
    {"smiles": "CCCCCCCCCCCCCCCCCCOC(=O)C1=C(C)NC2=C(C(=O)CC(C)(C)C2)C1c1cccc(O)c1", "note": "(stereo not given)", "values": [
      {"measurement": "Activity", "setting": "C6 [4]", "value": "Dose-dependent effect"},
      {"measurement": "Activity", "setting": "C6 [7]", "value": 40, "unit": "%"}
    ]},
    {"smiles": "CCCCCCCCCCCCCCCCCCOC(=O)C1=C(C)NC2=C(C(=O)CC(C)(C)C2)C1c1cccc(OC)c1", "note": "(stereo not given)", "values": [
      {"measurement": "Activity", "setting": "C6 [4]", "value": "Dose-dependent effect"},
      {"measurement": "Activity", "setting": "C6 [5]", "value": "inactive"}
    ]},
    {"smiles": "CCCCCCCCCCCCCCCCCCOC(=O)C1=C(C)NC2=C(C(=O)CC(C)(C)C2)C1c1ccc(OC)cc1", "note": "(stereo not given)", "values": [
      {"measurement": "Activity", "setting": "C6 [4]", "value": "Dose-dependent effect"}
    ]},
    {"smiles": "CCOC(=O)C1=C(C)NC2=C(C(=O)CC(C)(C)C2)C1c1ccccc1", "note": "(stereo not given)", "values": [
      {"measurement": "Activity", "setting": "C6 [8]", "value": "Active"}
    ]},
    {"smiles": "CCCCCCCCCCCCCCCCOC(=O)C1=C(C)NC2=C(C(=O)CC(C)(C)C2)C1c1cccc(O)c1", "note": "(stereo not given)", "values": [
      {"measurement": "Activity", "setting": "C6 [4]", "value": "Dose-dependent effect"},
      {"measurement": "Activity", "setting": "C6 [9]", "value": 40, "unit": "%"}
    ]}
  ]
}
